Measured values from patent US20110311601A1, “ANTIMICROBIAL MEDICAL DEVICES” (priority 2010, published 2011).
Where no end group is shown, it is not given here.

Columns and labels:
Type in all cases: cell-based
[1] = test system: Serratia marcescens NCTC 10211; experiment: micro-dilution assay (MBC, LD90)
Experimental: (§1) The anti-bacterial activity of hβD2 was tested by a micro-dilution assay. Bacteria and fungi were streaked from a glycerol stock onto a Brain Heart Infusion (BHI) agar plate (3.7% w/v BHI Bouillon, 1.5% w/v Agar), grown overnight at 37° C. and 30° C., respectively and subsequently used to inoculate 40 ml of 3.7% w/v BHI Bouillon without any antibiotics in 100 ml flasks. Fresh cells were harvested by centrifugation at 16000 rpm for 10 min and washed twice with 10 mM sodium phosphate buffer, pH 7.2. The optical density was adjusted to 10^4 cells/ml. For anti-bacterial testing hβD2 was incubated in one well of a microtiter plate containing 100 μl of the bacterial suspension. Therefore, ten microlitres of hβD2 solution with a range of final concentrations tested from 0.0125 up to and including 100 mg/l was added to the bacterial suspension and incubated at 37° C. and 30° C., respectively for 2 h before colony forming units were determined. Colony forming units (CFU) were determined after plating 100 μl of a 1:100 dilution of the bacterial suspension on petri dishes with BHI medium and incubating them overnight at 37° C. For every group of the hβD2 added samples and the controls, 5 independent anti-bacterial assays were performed. A control (NC) of bacterial growth was examined for every independent assay. The number of CFU on the control (consisting of a single petri dish) was set to 0% bactericidal activity. The reduction in the CFU resulting from the anti-bacterial activity of hβD2 was related to the absolute CFU of the control within every independent assay. This value, given as a percentage of the bacterial “killing” activity, was used to describe the antibacterial activity. This kind of normalisation of the antibacterial data was performed for every experimental group.
(§2) The antibacterial activity of hβD2 were given either as minimum bactericidal concentration (MBC), i.e., the minimum concentration of hβD2 in μg/ml which is required to kill 99.9% of the bacteria or fungi or as lethal dose (LD90), i.e., the concentration of hβD2 in μg/ml which is lethal for 90% of bacteria or fungi.

[2] = test system: Candida tropicalis ATCC 750; experiment: micro-dilution assay (MBC, LD90)
Experimental: as §1, §2

[3] = test system: Proteus vulgaris UR 1464/03 (wild-type); experiment: micro-dilution assay (MBC, LD90)
Experimental: as §1, §2

[4] = test system: Serratia marcescens Mero 041/145 (wild-type); experiment: micro-dilution assay (MBC, LD90)
Experimental: as §1, §2

[5] = test system: Acinetobacter genosp. 3 ATCC 19004; experiment: micro-dilution assay (MBC, LD90)
Experimental: as §1, §2

[6] = test system: Fusobacterium nucleatum ATCC 10953; experiment: micro-dilution assay (MBC, LD90)
Experimental: as §1, §2

[7] = test system: Issatchenkia orientalis ATCC 6258; experiment: micro-dilution assay (MBC, LD90)
Experimental: as §1, §2

[8] = test system: Escherichia coli strain DB3.1; experiment: micro-dilution assay of coated titanium pins and peptide controls (bacterial killing, CFU)
Experimental: In a first experiment 10 μg of hβD2 was coated to three different SAM Hexadecyltrimethoxysilane (SAM 1), Dimethoxymethyloctylsilane (SAM 2), and oxidized Allyltrimethoxysilane (SAM 3) of the modified titanium pins. The anti-bacterial activity of the hβD2-coated pins was tested by a micro-dilution assay. Therefore, Escherichia coli strain DB3.1 (Invitrogen, Cat. No. 11782-018) was used. E. coli was streaked from a glycerol stock onto a Brain Heart Infusion (BHI) agar plate (3.7% (w/v) BHI Bouillon, 1.5% (w/v) Agar), grown overnight at 37° C. and subsequently used to inoculate 40 ml of 3.7% (w/v) BHI Bouillon without any antibiotics in 100 ml flasks. Fresh cells were harvested by centrifugation at 16000 rpm for 10 min and washed twice with 10 mM sodium phosphate buffer, pH 7.2. The optical density was adjusted to 10^4 cells/ml. For anti-bacterial testing, a single pin coated with hβD2 was incubated in one well of a microtiter plate containing 100 μl of the bacterial suspension.
Functionalized titanium pins without hβD2 served as negative controls (SAM1-n, SAM2-n, SAM3-n, SAM4::Col-NHS-n, SAM4::Col-Glu-n). In addition, 5 independent control reactions consisting of hβD2 in a final amount of 0 (NC), 0.02 (PC1), 0.2 (PC2), 2 (PC3) and 10 (PC4) μg were examined in parallel. To determine the specificity of the anti-bacterial activity of hβD2, 10 μl (10 μg/ml in PBS) of polyclonal monospecific anti-hβD2 antibodies were co-incubated with 10 μg of hβD2 and bacterial cells (Table I, PC4/ab).
The microtiter plates were incubated for 2 h at 37° C. The kinetic studies were performed by replacing the bacterial suspension, after 2 h of cultivation with a freshly pre-cultured E. coli solution, which contained the same bacterial concentration, and cultivating for another 2 h and so on. Colony forming units (CFU) were determined after plating 100 μl of a 1:100 dilution of the bacterial suspension on petri dishes with BHI medium and incubating them overnight at 37° C. For every group of the functionalized titanium pins and the controls, 5 independent anti-bacterial assays were performed. A control (NC) of bacterial growth was examined for every independent assay. The number of CFU on the control (consisting of a single petri dish) was set to 0% bactericidal activity. The reduction in the CFU resulting from the anti-bacterial activity of hβD2 was related to the absolute CFU of the control within every independent assay. This value, given as a percentage of the bacterial “killing” activity, was used to describe the antibacterial activity. This kind of normalisation of the antibacterial data was performed for every experimental group.
To examine the release behavior of hβD2 that is adsorbed by different SAM modified titanium pins a time kinetic experiment was performed. The experiment was performed analogous to Example 2. For this experiment 80 μg of hβD2 was adsorbed to three different SAMs Hexadecyltrimethoxysilane (SAM1), Dimethoxymethyloctylsilane (SAM2), and oxidized Allyltrimethoxysilane (SAM3) of the modified titanium pins.
Since it is known that collagen has a positive impact on wound healing, functionalised titanium pins with collagen were investigated. Two different cross-linking strategies for collagen on SAM3 and SAM4 were applied as described in Example 1: (i) a covalently binding strategy with the NHS/EDC cross-linking system, and (ii) the use of glutaraldehyde. Successful binding of collagen was monitored by collagen-specific DirectRed staining (as described in Example 1). […] Additionally 80 μg hβD2 was adsorbed to collagen functionalized SAM3 and SAM4 modified titanium pins, respectively. For monitoring the antibacterial activity of the bio-coated pins the experiment was performed analogous to Example 3. […]

human β-defensin-2 (GIGDPVTCLKSGAICHPVFCPRRYKQIGTCGLPGTKCCKKP; ends and bridges not checked; cysteine pairing not given here) [hβD2, recombinant hβD2]
LD 90 = μg/ml 90% killing [1]: 50 µg/mL
MBC = μg/ml 99.9% killing [1]: 100 µg/mL
LD 90 = μg/ml 90% killing [2]: 1.56 µg/mL
MBC = μg/ml 99.9% killing [2]: 25 µg/mL
LD 90 = μg/ml 90% killing [3]: 3.125 µg/mL
MBC = μg/ml 99.9% killing [3]: 12.5 µg/mL
LD 90 = μg/ml 90% killing [4]: 25 µg/mL
MBC = μg/ml 99.9% killing [4]: 100 µg/mL
LD 90 = μg/ml 90% killing [5]: 0.2 µg/mL
MBC = μg/ml 99.9% killing [5]: 0.78 µg/mL
LD 90 = μg/ml 90% killing [6]: 3.125 µg/mL
MBC = μg/ml 99.9% killing [6]: 3.125 µg/mL
LD 90 = μg/ml 90% killing [7]: 6.25 µg/mL
MBC = μg/ml 99.9% killing [7]: 50 µg/mL
antmicrobial activity, bacterial killing [%] ([8]; control PC1: 0.02 μg rHuβD2, 2 h): 14.80 ± 2.78%
antmicrobial activity, bacterial killing [%] ([8]; control PC2: 0.20 μg rHuβD2, 2 h): 32.38 ± 2.93%
antmicrobial activity, bacterial killing [%] ([8]; control PC3: 2.00 μg rHuβD2, 2 h): 92.80 ± 3.91%
antmicrobial activity, bacterial killing [%] ([8]; control PC4/ab: 10.00 μg rHuβD2 co-incubated with polyclonal anti-hβD2 antibodies, 2 h): 0%
antmicrobial activity, bacterial killing [%] ([8]; control PC4: 10.00 μg rHuβD2, 2 h): 100%
